According to US8748419B2, “Treating obesity with muscarinic receptor M1 antagonists” (priority 2006, dated 2014):

Columns and labels:
[1] = Appetite suppression: high fat food consumption in fasted rats (4-Hour and 24-Hour Consumption); format: in vivo, Sprague-Dawley rats
From the text: Appetite Suppression: Three-month-old (300-350 grams) male, Sprague-Dawley rats (individually housed) were used to assess compounds for their appetite suppressant effects. Rats were acclimatized to a “high fat” food diet (BioServ Diet #F3282 or Research Diets #12451) for two weeks prior to testing (access to food and water ad libitum). One day prior to the experiment (at 5:00 PM), food was removed from the cages in order to motivate feeding when the food was returned the following morning (water remained available throughout the experiment). Prior to presentation of the food, rats (n=8-10/dose group) were dosed intraperitoneally (ip) or orally (po) with the compound under investigation, returned to their home cage and immediately given a pre-weighed amount of food. Four hours after administration, the food was removed from the cage, weighed, recorded (4-Hour Consumption) and returned to the rat until the following morning. Twenty-four hours after administration, the remaining food was again weighed and recorded (24-Hour Consumption). Cumulative consumption (expressed in grams) was calculated for both the four and the twenty-four hour intervals. In this assay, vehicle-treated rats typically consume approximately 8 grams over the four-hour interval and approximately 25 grams over the twenty-four-hour interval.
Treatment effects are presented in Table 1 and FIGS. 1-5 (4-Hour Consumption) and Table 2 and FIGS. 6-10 (24-Hour Consumption). The effects are given as both Raw Consumption (in grams ±SEM [1 standard error of the mean]) and as % Reduction in 4-Hour or 24-Hour Consumption=[1-(Consumption following Drug Treatment/Consumption following Vehicle Treatment)]×100%. Similar superscripts in the Dose column of Tables 1 and 2 denote values derived from the same experiment (to facilitate comparisons between individual treatments and co-administrations). Statistical analyses were performed using a 1-way ANOVA (analysis of variance) followed by a Bonferroni multiple comparison test with the overall alpha set at 0.05. In Tables 1 and 2, asterisks (*) denote significant effects compared to vehicle-treated rats, while letters (a or b) denote significant effects compared to rats treated with a single compound (“a” for significance from antidepressant and “b” for significance from telenzepine). In Tables 1 and 2, one symbol denotes p<0.05, two symbols denote p<0.01 and three symbols denote p<0.001). The symbols used for denoting statistical significance may be different in the corresponding figures.

[2] = Reduction in weight gain of rats on a high fat diet (two-week treatment); format: in vivo, Sprague-Dawley rats; details: for % Reduction: treatment minus vehicle % weight gain
Protocol: Reduction in Weight Gain: Three- to four-month-old (475-550 grams) male, Sprague-Dawley rats (individually housed) were used to assess compounds for their ability to prevent weight gain. At the onset of chronic experiments, rats had been maintained (ad libitum access) on a “high fat” diet (BioServ Diet #F3282 or Research Diets #12451) for approximately one month. Individual body weights and water consumptions were recorded three times per week throughout the duration of the experiment. After approximately two weeks of data collection, rats were counter-balanced to produce treatment groups with equivalent mean body weights. Under isofluorane-induced anesthesia, rats were surgically implanted (subscapular, subcutaneous [sc] placement) with osmotic mini-pumps (Alzet 2mL2) containing the appropriate drug concentration (based on mean body weights and calculated durations of delivery). Alternatively, for studies using the oral route of administration, rats were dosed by gavage daily over 14 days at a volume of 3 mL/kg. Data collection was continued under drug treatment for approximately two more weeks. Change in body weight (expressed in grams) was calculated for the treatment interval. In this assay, vehicle-treated rats typically gain approximately 35-40 grams (+9%) over the two-week interval. Treatment effects are presented in Table 3 as % Weight Gain=[(Body Weight at End of Drug Infusion−Baseline Body Weight)/Baseline Body Weight]×100%, for both Vehicle and Treatment groups; as well as % Reduction=(% Weight Gain for Treatment group−% Weight Gain for Vehicle group). Body weights throughout the treatment period are presented in FIGS. 11-15 as the percentage of baseline body weight. Similar superscripts in the Dose column of Table 3 denote values derived from the same experiment (to facilitate comparisons between individual treatments and co-administrations). Statistical analyses were performed using a 1-way ANOVA (analysis of variance) followed by a Bonferroni multiple comparison test with the overall alpha set at 0.05. In Table 3, asterisks (*) denote significant effects compared to vehicle-treated rats, while letters (a or b) denote significant effects compared to rats treated with a single compound (“a” for significance from antidepressant and “b” for significance from telenzepine). In Table 3, one symbol denotes p<0.05, two symbols denote p<0.01 and three symbols denote p<0.001). The symbols used for denoting statistical significance may be different in the corresponding figures.

[3] = directly injected into the midbrain; cited from earlier work
[4] = 24 h, 10 mg/kg ip, experiment e
[5] = 24 h, 10 mg/kg po, experiment c
[6] = 24 h, 30 mg/kg po, experiment c

## Cc1scc2c1N(C(=O)CN1CCN(C)CC1)c1ccccc1NC2=O [Telenzepine, 4,9-Dihydro-3-methyl-4-[(4-methyl-1-piperazinyl)acetyl]-10H-thieno[3,4-b][1,5]benzodiazepin-10-one]
[1]; 4 h, 1 mg/kg ip, experiment b
  % Reduction in Consumption: 43%
  Treatment Consumption: 4.0 ± 0.50 g/4 Hrs
[1]; 4 h, 1 mg/kg ip, experiment e
  % Reduction in Consumption: 38%
  Treatment Consumption: 5.7 ± 0.63 g/4 Hrs
[1]; 4 h, 3 mg/kg ip, experiment a
  Treatment Consumption: 4.2 ± 0.36 g/4 Hrs
[1]; 4 h, 3 mg/kg ip, experiment a, 3 mg/kg
  % Reduction in Consumption: 45%
[1]; 4 h, 3 mg/kg ip, experiment a, listed as telenzepine, 3 mg/kg
  % Reduction in Consumption: 45%
[1]; 4 h, 3 mg/kg ip, experiment b
  Treatment Consumption: 4.5 ± 0.40 g/4 Hrs
[1]; 4 h, 3 mg/kg ip, experiment b, 3 mg/kg
  % Reduction in Consumption: 35%
[1]; 4 h, 3 mg/kg ip, experiment b, listed as telenzepine, 3 mg/kg
  % Reduction in Consumption: 35%
[1]; 4 h, 3 mg/kg ip, experiment e
  % Reduction in Consumption: 40%
  Treatment Consumption: 5.5 ± 0.60 g/4 Hrs
[1]; 4 h, 10 mg/kg ip, experiment e
  % Reduction in Consumption: 56%
  Treatment Consumption: 4.1 ± 0.55 g/4 Hrs
[1]; 4 h, 10 mg/kg po, experiment c
  % Reduction in Consumption: 28%
  Treatment Consumption: 7.4 ± 0.64 g/4 Hrs
[1]; 4 h, 30 mg/kg po, experiment c
  % Reduction in Consumption: 36%
  Treatment Consumption: 6.6 ± 1.01 g/4 Hrs
[1]; 24 h, 1 mg/kg ip, experiment b
  % Reduction in Consumption: 16%
  Treatment Consumption: 20.9 ± 0.78 g/24 Hrs
[1]; 24 h, 1 mg/kg ip, experiment e
  % Reduction in Consumption: 18%
  Treatment Consumption: 23.6 ± 1.01 g/24 Hrs
[1]; 24 h, 3 mg/kg ip, experiment a
  Treatment Consumption: 17.5 ± 1.38 g/24 Hrs
[1]; 24 h, 3 mg/kg ip, experiment a, 3 mg/kg
  % Reduction in Consumption: 27%
[1]; 24 h, 3 mg/kg ip, experiment a, listed as telenzepine, 3 mg/kg
  % Reduction in Consumption: 27%
[1]; 24 h, 3 mg/kg ip, experiment b
  Treatment Consumption: 19.4 ± 0.94 g/24 Hrs
[1]; 24 h, 3 mg/kg ip, experiment b, 3 mg/kg
  % Reduction in Consumption: 22%
[1]; 24 h, 3 mg/kg ip, experiment b, listed as telenzepine, 3 mg/kg
  % Reduction in Consumption: 22%
[1]; 24 h, 3 mg/kg ip, experiment e
  % Reduction in Consumption: 32%
  Treatment Consumption: 19.7 ± 0.95 g/24 Hrs
[1]; [4]
  % Reduction in Consumption: 50%
  Treatment Consumption: 14.5 ± 1.29 g/24 Hrs
[1]; [5]
  % Reduction in Consumption: 39%
  Treatment Consumption: 18.5 ± 2.33 g/24 Hrs
[1]; [6]
  % Reduction in Consumption: 56%
  Treatment Consumption: 13.3 ± 2.69 g/24 Hrs
[1]; all doses tested (ip), given alone
  effect on consumption: significantly reduced consumption
[2]; 0.3 mg/kg sc, experiment c
  Treatment: % Weight Gain: 4.4 ± 0.6%
  % Reduction: −0.9%
[2]; 1 mg/kg po, experiment d
  Treatment: % Weight Gain: 3.3 ± 0.6%
  % Reduction: −3.1%
[2]; 3 mg/kg of telenzepine alone
  reduction in body weight compared to vehicle treated rats: 3.8%
[2]; 3 mg/kg sc, experiment a
  Treatment: % Weight Gain: 1.5 ± 1.0%
  % Reduction: −7.1%
[2]; 3 mg/kg sc, experiment b
  Treatment: % Weight Gain: 4.3 ± 0.8%
  % Reduction: −3.8%
[3]
  GABA efflux: reduced GABA efflux
